Measured values published in EP4570244A1, “ENHANCING AGENT OF CARDIOLIPIN MOLECULAR SPECIES THAT IS MITOCHONDRIAL COMPONENT” (Watanabe Oyster Laboratory Co., Ltd., priority 2022, dated 2024).

Key:
CDS2 = test: qPCR expression level of cardiolipin biosynthesis-related gene in HK-2 cells under oxidative stress; assay type: cell-based, Human; conditions: oxidative stress + DHMBA, 24 hours, versus the increase in the oxidative stress group, corrected with β-actin, FIG. 5
Description: (§1) Human renal proximal tubule cells (HK-2) were subcultured in Dulbecco's Modified Eagle's Medium (DMEM, Nacalai Tesque) containing 10% fetal bovine serum and 1% penicillin-streptmycin at 37°C in a 5% CO2 incubator. The following experiments were conducted using the oxidative stress inducer to confirm the cardiolipin increase effect of DHMBA on the oxidative stress.
(§2) HK-2 cells were seeded in a 6-well plate at a density of 5.0 × 10^4 cells/well and cultured for 24 hours.
(§3) Next, under the same stimulus conditions as described above, 2 mL thereof was added to each well. After 24 hours, total RNA was recovered using NucleoSpin (registered trademark) RNA Kit (MACHEREY-NAGEL). The concentration of the purified RNA was quantified by Nanodrop (Invitrogen). From 1.0 µg of the total RNA, cDNA was synthesized according to a protocol for ReverTra Ace (registered trademark) qPCR RT Master Mix with gDNA Remover (TOYOBO).
(§4) The gene expression levels were measured according to a protocol for THUNDERBIRD (registered trademark) SYBR (registered trademark) qPCR Mix (TOYOBO). Measurements were performed using a CFX Connect™ real-time PCR analysis system (BioRad), and analyzed using a 2^-(ΔΔCT) method.
(§5) The gene expression level of the control group was set at 1 for comparison. The figures are expressed as mean ± SD (n = 4 for each group). […]

[1] = system: Human renal proximal tubule cells (HK-2); test: Cardiolipin measurement by LC-MS/MS in HK-2 cells under oxidative stress stimulation; assay type: cell-based
Description: as §1
HK-2 cells were seeded in a 6-well plate at a density of 1.0 × 10^5 cells/well and cultured for 24 hours. The cells were then divided into four groups with different stimulus conditions, and 2 mL thereof was added to each well.
The above-described four groups with the different stimulus conditions are as follows.
Control group (culture medium); oxidative stress group (final concentration 100 µM Oxidative Stress); oxidative stress + DHMBA 250 group (final concentration 100 µM Oxidative Stress + final concentration 250 µM DHMBA); and oxidative stress + DHMBA 500 group (final concentration 100 µM Oxidative Stress + final concentration 500 µM DHMBA).
After 24 hours, the cells were washed twice with phosphate-buffered saline (hereinafter referred to as PBS), and then 1 mL of PBS was added to each well and the cells were recovered using a scraper. In this cell suspension, 100 µL was used for protein quantification by a bicinchoninic acid (BCA) method. The protein concentration was used for correction of the cardiolipin concentration. The remaining cell suspension was centrifuged at 1,200 rpm for 5 minutes, the supernatant was removed, and then the precipitated cells were stored at -80°C.
For the cardiolipin measurement, the total intracellular lipids were extracted in the same way as in the previous reports (Chen Z, et al. Metabolomics, 16: 115, 2020).
In short, the lipids in the sample were extracted using hexane/isopropanol 3:2 (v/v, with 0.05% butylated hydroxytoluene), and then dried and hardened in an evaporator. Next, the sample was dissolved in methanol (MeOH), and insoluble substances were removed by centrifugation at 15,000 rpm for 15 minutes at 4°C. The total lipids extracted were stored at -80°C. The cardiolipin measurement was performed using LC-MS/MS, following the same procedure as before.

PNPLA8 = test: qPCR expression level of cardiolipin remodeling and degradation-related gene in HK-2 cells under oxidative stress; assay type: cell-based, Human; conditions: oxidative stress + DHMBA, 24 hours, versus the increase in the oxidative stress group, corrected with β-actin, FIG. 6
Description: as §1, §2, §3, §4, §5

HADHB = test: as above; assay type: cell-based, Human; conditions: oxidative stress + DHMBA, 24 hours, corrected with β-actin, FIG. 6
Description: as §1, §2, §3, §4, §5

[2] = oxidative stress + DHMBA, acyl group distribution, FIG. 4

## COc1c(O)cc(CO)cc1O [DHMBA, 3,5-dihydroxy-4-methoxybenzyl alcohol]
CDS2
  gene expression level of CDS2: decreased to the same level as the control group
[1]; 100 µM oxidative stress inducer + DHMBA (250 or 500 µM), 24 hours, almost all species, FIG. 2
  cardiolipin molecular species: increased significantly
[1]; co-treatment with 100 µM oxidative stress and 250 µM or 500 µM DHMBA, 24 hours, increase, FIG. 3
  total cardiolipin content: about 1.5 times
[1]; [2]
  saturated fatty acid chain FA16:0 of cardiolipin: decreased
  unsaturated fatty acid chain FA18:1 of cardiolipin: increased
  unsaturated fatty acid chain FA18:2 of cardiolipin: increased
PNPLA8
  gene expression level of PNPLA8: decreased to the same level as the control group
HADHB
  expression level of HADHB: increased
